Active and inactive are the calls of the source. No cut-off for these calls is given here.
Tests used:
[1] = target: T1, Amine oxidase [flavin-containing] B (Homo sapiens, UniProt P27338); experiment: Inhibition of human recombinant MAO-B using benzylamine as substrate at 20 uM preincubated for 15 mins under dark condition followed by substrate addition measured after 20 mins by fluorescence assay
T1 sequence (P27338 whole entry): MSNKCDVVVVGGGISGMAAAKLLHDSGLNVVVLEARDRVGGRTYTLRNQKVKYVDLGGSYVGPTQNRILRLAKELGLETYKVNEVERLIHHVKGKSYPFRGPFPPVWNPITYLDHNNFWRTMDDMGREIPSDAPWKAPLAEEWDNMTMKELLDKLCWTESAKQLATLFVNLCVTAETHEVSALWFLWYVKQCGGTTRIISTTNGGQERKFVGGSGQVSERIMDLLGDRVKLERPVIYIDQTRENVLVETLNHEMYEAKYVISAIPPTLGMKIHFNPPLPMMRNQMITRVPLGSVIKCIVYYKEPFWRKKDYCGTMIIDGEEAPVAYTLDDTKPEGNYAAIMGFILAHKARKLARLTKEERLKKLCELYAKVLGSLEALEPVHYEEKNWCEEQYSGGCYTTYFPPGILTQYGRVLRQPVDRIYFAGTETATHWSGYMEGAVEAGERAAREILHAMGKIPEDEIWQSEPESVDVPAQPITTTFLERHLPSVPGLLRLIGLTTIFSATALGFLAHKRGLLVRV

[2] = target: T2, Amine oxidase [flavin-containing] A (Homo sapiens, UniProt P21397); conditions: 20 min, read-out: INH
T2 sequence (P21397 whole entry): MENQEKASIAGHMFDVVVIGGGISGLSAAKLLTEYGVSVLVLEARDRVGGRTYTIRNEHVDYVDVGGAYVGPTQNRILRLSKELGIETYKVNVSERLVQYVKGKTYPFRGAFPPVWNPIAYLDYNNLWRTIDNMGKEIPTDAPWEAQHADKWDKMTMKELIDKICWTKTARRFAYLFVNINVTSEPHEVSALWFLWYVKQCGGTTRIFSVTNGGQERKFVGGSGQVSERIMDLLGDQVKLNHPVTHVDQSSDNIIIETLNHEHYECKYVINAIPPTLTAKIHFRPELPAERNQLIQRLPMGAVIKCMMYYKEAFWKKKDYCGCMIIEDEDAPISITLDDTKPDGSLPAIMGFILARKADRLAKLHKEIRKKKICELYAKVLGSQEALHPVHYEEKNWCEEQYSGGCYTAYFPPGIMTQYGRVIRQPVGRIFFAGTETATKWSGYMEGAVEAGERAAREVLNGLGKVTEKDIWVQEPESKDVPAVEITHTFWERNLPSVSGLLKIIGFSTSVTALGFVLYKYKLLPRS
Description: Inhibition of human recombinant MAO-A using p-tyramine as substrate assessed as formation of H2O2 at 100 uM preincubated for 15 mins under dark condition followed by substrate addition measured after 20 mins by fluorescence assay relative to control

[3] = target: Cholinesterase (Equus caballus, UniProt P81908)
Chain of Cholinesterase (P81908 whole entry): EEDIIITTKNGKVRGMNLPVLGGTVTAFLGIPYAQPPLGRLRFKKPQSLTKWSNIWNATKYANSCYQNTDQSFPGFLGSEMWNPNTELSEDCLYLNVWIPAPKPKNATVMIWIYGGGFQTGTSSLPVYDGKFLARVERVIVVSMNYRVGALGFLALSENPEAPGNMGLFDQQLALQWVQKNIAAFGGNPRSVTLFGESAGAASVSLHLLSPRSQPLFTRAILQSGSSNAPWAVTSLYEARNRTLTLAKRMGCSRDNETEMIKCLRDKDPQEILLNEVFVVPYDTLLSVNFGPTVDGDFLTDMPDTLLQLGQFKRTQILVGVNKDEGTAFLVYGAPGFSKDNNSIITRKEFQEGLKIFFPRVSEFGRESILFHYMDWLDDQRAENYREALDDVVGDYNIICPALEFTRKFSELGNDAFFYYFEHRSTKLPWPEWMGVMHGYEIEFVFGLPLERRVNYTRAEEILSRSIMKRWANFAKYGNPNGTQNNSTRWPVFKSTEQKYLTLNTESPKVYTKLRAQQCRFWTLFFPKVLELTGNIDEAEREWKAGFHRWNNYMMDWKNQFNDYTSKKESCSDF
Description: Inhibition of horse serum BuChE using butylthiocholine chloride as substrate preincubated for 15 mins followed by substrate addition measured every 1 min by Ellman method

[4] = target: Acetylcholinesterase (Electrophorus electricus, UniProt O42275)
Chain of Acetylcholinesterase (Electrophorus electricus, UniProt O42275) (O42275 whole entry): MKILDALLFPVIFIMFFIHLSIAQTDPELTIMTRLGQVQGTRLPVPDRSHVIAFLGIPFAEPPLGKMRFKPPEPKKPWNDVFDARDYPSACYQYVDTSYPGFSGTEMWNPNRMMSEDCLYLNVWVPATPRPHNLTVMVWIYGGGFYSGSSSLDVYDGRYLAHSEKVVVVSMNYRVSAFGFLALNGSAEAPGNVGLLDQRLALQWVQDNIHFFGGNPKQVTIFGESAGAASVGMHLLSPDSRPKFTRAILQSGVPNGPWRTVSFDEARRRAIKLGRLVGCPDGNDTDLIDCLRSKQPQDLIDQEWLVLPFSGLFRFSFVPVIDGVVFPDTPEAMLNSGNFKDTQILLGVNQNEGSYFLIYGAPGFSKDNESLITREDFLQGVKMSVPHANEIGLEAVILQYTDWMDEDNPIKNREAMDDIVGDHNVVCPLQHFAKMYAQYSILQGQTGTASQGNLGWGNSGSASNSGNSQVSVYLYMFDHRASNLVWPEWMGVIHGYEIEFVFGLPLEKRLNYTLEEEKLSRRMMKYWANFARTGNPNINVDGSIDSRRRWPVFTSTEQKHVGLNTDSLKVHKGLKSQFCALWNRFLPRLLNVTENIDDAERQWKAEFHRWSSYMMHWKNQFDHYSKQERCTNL
Description: Inhibition of electric eel AChE using acetylthiocholine chloride as substrate preincubated for 15 mins followed by substrate addition measured every 1 min by Ellman method

[5] = target: T1, Amine oxidase [flavin-containing] B
Description: Inhibition of human recombinant MAO-B using benzylamine as substrate preincubated for 15 mins under dark condition followed by substrate addition measured after 20 mins by fluorescence assay

[6] = target: T3, Acetylcholinesterase (Homo sapiens, UniProt P22303); experiment: Inhibition of human erythrocytic AChE using acetylthiocholine chloride as substrate preincubated for 15 mins followed by substrate addition measured every 1 min by Ellman method
T3 sequence (P22303 whole entry): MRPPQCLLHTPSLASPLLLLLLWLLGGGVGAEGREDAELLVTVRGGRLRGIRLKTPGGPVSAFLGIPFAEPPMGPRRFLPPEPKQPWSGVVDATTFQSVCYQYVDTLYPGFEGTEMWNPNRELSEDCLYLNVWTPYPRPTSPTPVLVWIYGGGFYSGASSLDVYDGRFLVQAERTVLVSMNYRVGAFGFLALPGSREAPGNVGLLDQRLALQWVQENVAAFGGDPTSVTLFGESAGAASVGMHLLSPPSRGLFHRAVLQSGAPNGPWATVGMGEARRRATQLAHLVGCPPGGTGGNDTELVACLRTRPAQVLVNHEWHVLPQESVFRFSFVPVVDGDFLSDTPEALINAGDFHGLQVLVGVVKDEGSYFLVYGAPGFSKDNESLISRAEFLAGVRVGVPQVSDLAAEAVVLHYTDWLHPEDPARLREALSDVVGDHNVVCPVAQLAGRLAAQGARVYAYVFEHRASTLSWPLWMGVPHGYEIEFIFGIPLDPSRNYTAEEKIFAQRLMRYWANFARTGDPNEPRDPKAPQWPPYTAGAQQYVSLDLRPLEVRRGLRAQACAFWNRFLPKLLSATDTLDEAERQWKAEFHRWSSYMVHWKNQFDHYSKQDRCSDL

[7] = in vitro; conditions: PAMPA
Description: Permeability of the compound at 100 mg/mL after 10 hrs by PAMPA

[8] = target: T1, Amine oxidase [flavin-containing] B; experiment: Irreversible inhibition of human recombinant MAO-B at 400 nM preincubated for 15 mins followed by repeated washing by centrifugation-ultrafiltration method relative to control
[9] = target: T1, Amine oxidase [flavin-containing] B; experiment: Irreversible inhibition of human recombinant MAO-B at 1 uM preincubated for 15 mins followed by repeated washing by centrifugation-ultrafiltration method relative to control
[10] = target: T1, Amine oxidase [flavin-containing] B; experiment: Inhibition of human recombinant MAO-B at 1 uM incubated for 15 mins prior to washing relative to control; conditions: 0.25 h
[11] = target: T1, Amine oxidase [flavin-containing] B; experiment: Inhibition of human recombinant MAO-B at 400 nM incubated for 15 mins prior to washing relative to control; conditions: 0.25 h
[12] = target: T3, Acetylcholinesterase; experiment: Inhibition of AChE (unknown origin)-induced beta-amyloid aggregation
[13] = target: Acetylcholinesterase (Electrophorus electricus) (UniProt O42275); experiment: Mixed-type inhibition of electric eel AChE using acetylthiocholine chloride as substrate assessed as increase in Km at 60 to 100 nM preincubated for 15 mins followed by substrate addition by Lineweaver-Burk plot analysis
Chain of Acetylcholinesterase (Electrophorus electricus) (O42275 24-633 limits assumed): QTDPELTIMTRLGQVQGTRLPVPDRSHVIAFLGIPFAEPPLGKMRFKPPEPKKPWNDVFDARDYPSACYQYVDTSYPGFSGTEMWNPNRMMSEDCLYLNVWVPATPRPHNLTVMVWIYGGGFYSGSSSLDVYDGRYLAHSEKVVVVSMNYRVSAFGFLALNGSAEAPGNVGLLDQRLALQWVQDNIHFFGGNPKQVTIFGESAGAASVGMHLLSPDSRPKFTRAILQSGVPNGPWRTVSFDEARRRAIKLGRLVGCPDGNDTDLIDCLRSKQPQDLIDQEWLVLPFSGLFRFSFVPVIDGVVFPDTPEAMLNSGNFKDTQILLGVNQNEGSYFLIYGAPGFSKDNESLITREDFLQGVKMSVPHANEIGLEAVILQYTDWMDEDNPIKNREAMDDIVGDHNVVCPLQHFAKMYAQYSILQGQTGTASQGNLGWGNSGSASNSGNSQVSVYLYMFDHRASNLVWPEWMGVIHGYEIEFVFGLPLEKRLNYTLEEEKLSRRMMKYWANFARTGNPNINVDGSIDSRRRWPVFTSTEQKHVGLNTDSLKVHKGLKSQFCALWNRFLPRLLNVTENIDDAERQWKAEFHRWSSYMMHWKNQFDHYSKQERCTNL

[14] = target: Acetylcholinesterase (Electrophorus electricus) (UniProt O42275); experiment: Mixed-type inhibition of electric eel AChE using acetylthiocholine chloride as substrate assessed as decrease in Vmax at 60 to 100 nM preincubated for 15 mins followed by substrate addition by Lineweaver-Burk plot analysis

Row | SMILES | inhibition (INH) [1] | inhibition at 100 µM [2] [%] | IC50 [3] [nM] | IC50 [4] [nM] | IC50 [5] [nM] | IC50 [6] [nM] | Papp at 10 h, 100 mg/mL [7] [×10⁻⁶ cm/s] | inhibition at 0.4 µM [8] [%] | inhibition at 1 µM [9] [%] | inhibition at 1 µM [10] [%] | inhibition at 0.4 µM [11] [%] | inhibition [12] | inhibition [13] | inhibition [14]
1 | CCN(CC)c1ccc(/C=C2\COc3cc(OCCCCCCNc4c5c(nc6ccccc46)CCCC5)ccc3C2=O)cc1 | Not Active | 22.4 | 235 | 693 |  |  |  |  |  |  |  |  |  | 
2 | COc1ccc(/C=C2\COc3cc(OCCCCCCCCCCNc4c5c(nc6ccccc46)CCCC5)ccc3C2=O)cc1 |  | 69.6 | 6.2 | 888 | 3430 |  |  |  |  |  |  |  |  | 
3 | COc1cccc(/C=C2\COc3cc(OCCCCCCNc4c5c(nc6ccccc46)CCCC5)ccc3C2=O)c1 |  | 54.1 | 47.1 | 142 | 2200 |  |  |  |  |  |  |  |  | 
4 | Cc1ccc(/C=C2\COc3cc(OCCCCCCNc4c5c(nc6ccccc46)CCCC5)ccc3C2=O)cc1 |  | 60.5 | 54.6 | 129 | 1240 |  |  |  |  |  |  |  |  | 
5 | COc1ccc(/C=C2\COc3cc(OCCCCCCCCNc4c5c(nc6ccccc46)CCCC5)ccc3C2=O)cc1 |  | 64.8 | 93.1 | 68.5 | 518 | 122 | 4.9 |  |  |  |  |  |  | 
6 | COc1ccc(/C=C2\COc3cc(OCCCCCCCCNc4c5c(nc6cc(Cl)ccc46)CCCC5)ccc3C2=O)cc1 |  | 33.1 | 612 | 188 | 1560 |  |  |  |  |  |  |  |  | 
7 | O=C1/C(=C/c2ccc(Cl)cc2)COc2cc(OCCCCCCNc3c4c(nc5ccccc35)CCCC4)ccc21 |  | 23.3 | 44.5 | 101 | 15400 |  | 1.1 |  |  |  |  |  |  | 
8 | COc1ccc(/C=C2\COc3cc(OCCCCCCNc4c5c(nc6ccccc46)CCCC5)ccc3C2=O)cc1 |  | 48.3 | 33 | 67.9 | 401 | 157 | 6.8 | 33.5 | 67.5 | 78.4 | 47.1 | Active | Active | Active
9 | COc1ccc(/C=C2\COc3cc(OCCCCCCNc4c5c(nc6cc(Cl)ccc46)CCCC5)ccc3C2=O)cc1 |  | 15.3 | 25.9 | 123 | 1360 |  |  |  |  |  |  |  |  | 
10 | COc1ccc(/C=C2\COc3cc(OCCCCCCNc4c5c(nc6ccccc46)CCCC5)ccc3C2=O)cc1OC |  | 51.6 | 34.7 | 117 | 19700 |  |  |  |  |  |  |  |  | 
11 | COc1ccccc1/C=C1\COc2cc(OCCCCCCNc3c4c(nc5ccccc35)CCCC4)ccc2C1=O |  | 70.3 | 29.9 | 151 | 1790 |  |  |  |  |  |  |  |  | 
12 | COc1ccc(/C=C2\COc3cc(OCCCCCNc4c5c(nc6ccccc46)CCCC5)ccc3C2=O)cc1 |  | 58.4 | 23.6 | 78.3 | 1160 | 98 | 6.6 |  |  |  |  |  |  | 
13 | COc1cc(/C=C2\COc3cc(OCCCCCCNc4c5c(nc6ccccc46)CCCC5)ccc3C2=O)cc(OC)c1OC | Not Active | 25.7 | 109 | 106 |  |  |  |  |  |  |  |  |  | 
14 | COc1ccc(/C=C2\COc3cc(O)ccc3C2=O)cc1 [BONDUCELLIN] |  | 24.1 | > 100000 | > 100000 | 1060 |  |  |  |  |  |  |  |  | 
15 | CN(C)c1ccc(/C=C2\COc3cc(OCCCCCCNc4c5c(nc6ccccc46)CCCC5)ccc3C2=O)cc1 |  | 31.5 | 65.7 | 115 | 1030 |  |  |  |  |  |  |  |  | 
16 | O=C1/C(=C/c2ccc(F)cc2)COc2cc(OCCCCCCNc3c4c(nc5ccccc35)CCCC4)ccc21 |  | 58.4 | 44.2 | 70.1 | 1090 | 105 | 4 |  |  |  |  |  |  | 
17 | COc1ccc(CC2COc3cc(OCCCCCCNc4c5c(nc6ccccc46)CCCC5)ccc3C2=O)cc1 (centres undefined) |  | 78.2 | 27.4 | 91.7 | 1110 |  | 2.8 |  |  |  |  |  |  | 
18 | COc1ccc(/C=C2\COc3cc(OCCCCCCCCCNc4c5c(nc6ccccc46)CCCC5)ccc3C2=O)cc1 |  | 60.2 | 30.9 | 169 | 437 |  |  |  |  |  |  |  |  | 

Reference: ChEMBL document CHEMBL3091317, “Inhibition of cholinesterase and monoamine oxidase-B activity by Tacrine-Homoisoflavonoid hybrids” (Bioorg Med Chem, 2013)
